From publication PMC10958880, “Pocket Crafter: a 3D generative modeling based workflow for the rapid generation of hit molecules in drug discovery” (Journal of Cheminformatics, 2024) come the findings set out here.

Assay type in all cases: binding
Test [1] concerns the target T1, WDR5 (Homo sapiens, UniProt P61964). As to the kind of experiment: WDR5-MYC peptide HTRF dose response, inactive in counter assay. Details: N-His, 1–334; with MYC MbIIIb peptide (256–268 a.a.). (In TR-FRET formats the signal depends on donor and acceptor labels being close together.)
Test [2] deals with T1, WDR5. The experiment in a line: DSF (Tm shift -4.[…] °C) plus WDR5-MYC peptide HTRF displacement with counter assay. More on the design: full-length WDR5 (DSF); N-His, 1–334 (HTRF).
Test [3] concerns the target T1, WDR5. The experiment in a line: DSF (Tm shift -1.[…] °C) plus WDR5-MYC peptide HTRF displacement with counter assay. Details: full-length WDR5 (DSF); N-His, 1–334 (HTRF).

`CC1(C)CN(c2cnn3c2CN(C(=O)c2cc4c([nH]2)CCCC4)CC3)C(=O)O1` [PC-3]: half-maximal inhibition at WDR5 [1] (IC50) was put at 28.5 µM.
`O=C(c1cc2ccccc2[nH]1)N1CCn2ncc(N3C[C@@H](CO)OC3=O)c2C1` [PC-1]: at WDR5 [2], the IC50 came out at 35.6 µM.
With `C[C@H]1Cc2noc(N3CCCCC3=O)c2CN1C(=O)c1cc2ccccc2[nH]1` [PC-2], at WDR5 [3], the IC50 amounted to 27.5 µM.

As a reminder, the IC50 is the point on the concentration scale where inhibition reaches its midpoint.
